How the values were obtained:
MEK1 = experiment: H2O2-induced MEK1 phosphorylation in astrocytes (ELISA); format: cell-based, rat; details: H2O2 175 μM 40 min; for effect on H2O2-induced phosphorylation of MEK1: astrocytes preincubated 2 h
Experimental: Astrocytes were treated with TTF 2 h before the addition of H2O2. Cells were lysed 40 minutes after the addition of H2O2 in lysis buffer supplied by PathScan sandwich ELISA kit (Cell Signaling TECHNOLOGY) according to the manufacturer's protocol. Protein concentrations in cell lysates were determined by Bradford reagent (Bio-Rad, Hercules, Calif.), and equal amounts of proteins were subjected to ELISA. To measure the amount of total and phosphoSAPK/JNK in cell lysates of astrocytes, ELISA was performed according to the manufacturer's protocol using the PathScan total SAPK/JNK sandwich ELISA kit (Cell Signaling TECHNOLOGY) and the PathScan phospho-SAPK/JNK (Thr183/Tyr185) sandwich ELISA kit (Cell Signaling TECHNOLOGY), respectively. To measure the amount of total and phospho-ERK 1/2 (i.e. phospho-p44/42 MAPK) in cell lysates of astrocytes, ELISA was performed according to the manufacturer's protocol using the PathScan total p44/42 MAPK (ERK 1/2) sandwich ELISA kit (Cell Signaling TECHNOLOGY) and the PathScan phospho-p44/42 MAPK (Thr202/Tyr204) sandwich ELISA kit (Cell Signaling TECHNOLOGY), respectively. To measure the amount of total and phospho-MEK1 in cell lysates of astrocytes, ELISA was performed according to the manufacturer's protocol using the PathScan total MEK1 sandwich ELISA kit (Cell Signaling TECHNOLOGY) and the PathScan phospho-MEK1 (Ser217/221) sandwich ELISA kit (Cell Signaling TECHNOLOGY), respectively. […] The optical density was determined at 450 nm using a microplate reader.
1. […] Determine the optical density at 450 nm using a microplate reader.
Astrocytes were treated with 175 μM of H2O2 for 40 min following preincubation with TTF for 2 h. The levels of phosphorylated and total SAPK/JNK (FIG. 3A), MEK1 (FIG. 3B) and ERK 1/2 (FIG. 3C) were measured by ELISA. […]

SAPK/JNK = experiment: Aβ25-35-induced SAPK/JNK phosphorylation in N2a cells (ELISA); format: cell-based; details: concomitant treatment 30-40 min
Experimental: 7. Measure the amount of total and phosphorylated SAPK/JNK in cell lysates) of N2a cells, by ELISA using the PathScan total SAPK/JNK sandwich ELISA kit (Cell Signaling TECHNOLOGY) and the PathScan phosoho-SAPK/JNK (Thr183/Tyr185) sandwich ELISA kit (Cell Signaling TECHNOLOGY), respectively, according to the manufacturer's instructions. 8. Determine the optical density at 450 nm using a microplate reader.
(§1) N2a cells were treated concomitantly with Aβ25-35 and TIF for 40 min. Cells were extracted and the levels of phosphorylated or total SAPK/JNK were determined by specific ELISA kits. The results are the mean±SEM of two different experiments (n=4) for phosphorylated SAPK/JNK and three different experiments (n=6) for total SAPK/JNK.
as §1, with “achillolide A” for “TIF”
N2a cells were treated concomitantly with Aβ25-35 and memantine for 30 min. Cells were extracted and the levels of phosphorylated SAPK/JNK were determined by a specific ELISA kit. The results are the mean±SEM of one experiment (n=2).

SMILES	effect on H2O2-induced phosphorylation of MEK1 (MEK1)	effect on Aβ25-35-induced phosphorylation of SAPK/JNK (SAPK/JNK)	inhibition of H2O2-induced phosphorylation of MEK1 (MEK1; astrocytes pretreated 2 h, total MEK1 not affected)
C=C1CCC2=C(CO)C(=O)O[C@H]2/C=C(\C)[C@H](OC(C)=O)CC1=O [achillolide A]	inhibitory effect	significantly decreased	–
CC12CC3CC(C)(C1)CC(N)(C3)C2 [memantine, reference compound]	inhibitory effect	down-regulates	–
COc1cc(-c2oc3cc(OC)c(OC)c(O)c3c(=O)c2O)ccc1O [TTF, 3,5,4′-trihydroxy-6,7,3′-trimethoxyflavone]	–	significantly inhibited	27%

— US11752125B2, “Anti-neuroinflammatory and protective compounds in Achillea fragrantissima” (THE STATE OF ISRAEL MINISTRY OF AGRICULTURE & RURAL …, priority 2013, dated 2023)
